In patent publication US10124078B2, “Lipid-based nanoparticles” (BOARD OF REGENTS OF THE UNIVERSITY OF HOUSTON SYSTEM, priority 2011, dated 2018):

Experiments:
Aβ plaques = target: T1, Aβ plaques (Homo sapiens, UniProt P05067); experiment: Ex vivo staining of mouse brain tissue sections (confocal fluorescence), with CG competition; type: binding, APP/PSEN1 transgenic mouse
T1 construct: from tissue; host or cells: brain (cortex and hippocampus) of 5 and 7 month old APP/PSEN1 transgenic mice
Protocol: The mice were engineered to progressively develop cortical and hippocampal plaques in an age-related manner similar to that observed in human AD pathology. Saggital sections (30 μm thick) from euthanized non-transgenic (control), 5, and 7 month old APP/PSEN1 mice were incubated in a 3 mM solution of the liposomes (concentration of Me-XO4 in the solution was 1 μM) for 2 h, at RT. This was followed by extensive washing with PBS to remove unbound liposomes. The stained tissues were mounted with […]® mounting media (Vector Laboratories, Inc., Burlingame, Calif.) to reduce background fluorescence and viewed under a confocal microscope.

[1] = target: T2, cortical and hippocampal Aβ plaques (Homo sapiens, UniProt P05067); experiment: In vivo delivery to cortical and hippocampal plaques after tail vein injection, confocal microscopy of brain sections; design: species or system APP/PSEN1 mice; conditions: 48 h after injection
T2 construct: from tissue; host or cells: brain (cortex and hippocampus) of 5 and 7 month old APP/PSEN1 transgenic mice
Protocol: 48 h following injection, the mice were euthanized and their brains sectioned for confocal light microscopic studies. Identical mice were injected with molecular/free methoxy-XO4 ligand to serve as a positive control, and with untargeted liposomes and saline as negative controls.

T1 sequence (P05067 672-713 limits assumed): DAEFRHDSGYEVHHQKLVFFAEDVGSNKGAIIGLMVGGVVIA
T2 sequence (P05067 672-713 limits assumed): as above

in vivo staining of plaques (fluorescence of brain sections) ([1]; 5 month old APP/PSEN1 mice) | SMILES | competition with Me-XO4-labeled liposomes for Aβ plaque deposits: fluorescence intensity and number of labeled plaques (Aβ plaques; 1 μM Me-XO4 and increasing concentrations of CG, cortex and hippocampus) | staining of Aβ plaque deposits on brain sections (Aβ plaques; 7 month old APP/PSEN1 mice, 30 μm sagittal sections, 1 μM Me-XO4, 2 h, RT) | in vivo staining of plaques (fluorescence of brain sections) ([1]; 7 month old APP/PSEN1 mice)
– | O=C(O)c1cc(/N=N/c2ccc(-c3ccc(/N=N/c4ccc(O)c(C(=O)O)c4)cc3)cc2)ccc1O [CG, Chrysamine G] | decrease in fluorescence intensity and the number of labeled plaques | – | –
no noteworthy fluorescence | COc1cc(/C=C/c2ccc(O)cc2)ccc1/C=C/c1ccc(O)cc1 [free methoxy-XO4 ligand, methoxy-XO4] | – | same plaque deposition pattern was observed | bright staining of both cortical and hippocampal plaques
